Literature values in article PMC4027949 (ACS Chemical Biology, 2014).

Assays:
[1] = tested on: P38; conditions: read-out: IC50 P38; Ibrutinib comparison values
[2] = target: PDGFRa (Homo sapiens, UniProt P16234); conditions: read-out: IC50 PDGFRa; Ibrutinib comparison values
[3] = tested on: PI3K; conditions: read-out: IC50 PI3K; Ibrutinib comparison values

Sequence of PDGFRa (P16234 24-1089, species assumed): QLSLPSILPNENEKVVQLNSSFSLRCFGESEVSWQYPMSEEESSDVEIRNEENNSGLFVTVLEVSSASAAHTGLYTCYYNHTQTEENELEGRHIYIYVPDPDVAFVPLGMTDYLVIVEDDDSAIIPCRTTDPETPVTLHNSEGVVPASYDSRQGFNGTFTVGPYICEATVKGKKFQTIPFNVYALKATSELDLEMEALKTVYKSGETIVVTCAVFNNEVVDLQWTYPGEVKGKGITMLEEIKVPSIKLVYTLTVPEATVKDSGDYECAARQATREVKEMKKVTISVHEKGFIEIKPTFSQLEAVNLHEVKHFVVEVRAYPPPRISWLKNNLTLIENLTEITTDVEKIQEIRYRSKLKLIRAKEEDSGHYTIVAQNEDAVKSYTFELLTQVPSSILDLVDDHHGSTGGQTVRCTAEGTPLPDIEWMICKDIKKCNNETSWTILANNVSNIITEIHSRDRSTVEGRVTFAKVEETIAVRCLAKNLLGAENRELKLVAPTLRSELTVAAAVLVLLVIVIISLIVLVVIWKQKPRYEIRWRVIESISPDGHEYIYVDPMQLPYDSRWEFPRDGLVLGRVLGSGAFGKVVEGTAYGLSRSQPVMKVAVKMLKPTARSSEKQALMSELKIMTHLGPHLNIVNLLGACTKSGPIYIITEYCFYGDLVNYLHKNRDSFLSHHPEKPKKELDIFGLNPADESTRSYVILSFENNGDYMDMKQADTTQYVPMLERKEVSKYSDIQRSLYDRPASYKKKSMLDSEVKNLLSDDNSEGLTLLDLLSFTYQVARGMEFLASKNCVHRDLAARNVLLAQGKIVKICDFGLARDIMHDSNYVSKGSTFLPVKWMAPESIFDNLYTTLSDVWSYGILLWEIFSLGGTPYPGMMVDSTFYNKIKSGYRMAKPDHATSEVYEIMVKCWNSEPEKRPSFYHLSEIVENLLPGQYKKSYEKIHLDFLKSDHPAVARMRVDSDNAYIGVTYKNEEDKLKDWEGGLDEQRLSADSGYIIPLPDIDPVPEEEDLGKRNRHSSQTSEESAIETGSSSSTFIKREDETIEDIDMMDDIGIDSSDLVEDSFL

IC50 [1]: > 10 µM | IC50 [2]: 0.718 µM | IC50 [3]: > 10 µM
SMILES: C=CC(=O)N1CCC[C@@H](n2nc(-c3ccc(Oc4ccccc4)cc3)c3c(N)ncnc32)C1 [Ibrutinib]
